Data reported in patent US7932253B2, “Immunomodulating oxopyrrazolocinnolines as CD80 inhibitors” (MediGene AG, priority 2004, dated 2011).

How the values were obtained:
[1] = biological target: T1, Biotinylated human CD80 (hCD80-BT) (Homo sapiens, UniProt P33681); assay: BIAcore biomolecular interaction assay; assay type: binding; settings: hCD80-BT immobilised on streptavidin-coated sensor chip; compound 1000 nM-0.05 nM
T1 construct: biotin (biotinylation)
T1 sequence (P33681 35-242 limits assumed): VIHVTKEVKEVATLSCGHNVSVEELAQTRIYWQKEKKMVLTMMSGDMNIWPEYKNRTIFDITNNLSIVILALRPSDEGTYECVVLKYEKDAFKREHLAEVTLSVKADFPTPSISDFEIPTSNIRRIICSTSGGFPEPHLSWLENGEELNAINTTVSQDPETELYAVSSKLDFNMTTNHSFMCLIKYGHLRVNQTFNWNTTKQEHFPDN
From the text: Biotinylated human CD80 (hCD80-BT) is a recombinant soluble form of a membrane bound receptor molecule (CD80) which binds to CD28 to initiate T cell activation. The interaction between CD80 and CD28 has been extensively investigated (Collins et al, 2002). Biotinlyated human HLA-A2-tax is the recombinant soluble form of a membrane bound receptor molecule used as a control protein, and is not expected to interact with the compound.
The BIAcore S51™ system was used for screening the compounds of Examples 1-4 above. A series S sensor chip CM5 was docked onto the BIAcore S51™. Streptavidin was coupled to the carboxymethyl surface using standard amine coupling. The chip surface was activated with 0.2M EDC/0.05M NHS, followed by binding of streptavidin (0.25 mg/ml in 10 mM sodium acetate pH 5.0) and saturation of unoccupied sites with […].
The BIAcore S51 sensor chip has two separate sensor spots for immobilisation of proteins. hCD80-BT was immobilised on the streptavidin-coated surface of one sensor spot until a response of approximately 3000 RU was observed. A protein to control for non-specific binding of the compound was immobilised on a second sensor spot. […]
BIAcore S51™ was run at a flow rate of 30 μl/min using running buffer. […] Data were recorded automatically and were analysed using BIAcore S51 Evaluation software.

[2] = biological target: T2, CD80-CD28 interaction (Homo sapiens, UniProt P33681); assay: Homogeneous time resolved fluorescence (TR-Fret) assay, cell free; assay type: biochemical; settings: inhibition of the CD80-CD28 interaction; 4 hours at room temperature
T2 construct: mouse Fab fragment (fusion partner)
T2 sequence (P33681 35-242 limits assumed): T1 sequence (P33681 35-242 limits assumed)
Method: The compound was tested in a cell free homogenous time resolved fluorescence (HT-Fret) assay to determine their activity as an inhibitor of the CD80-CD28 interaction.
In the assay, europium and allophycocyanin (APC) are associated with CD28 and CD80 indirectly (through antibody linkers) to form a complex, which brings the europium and APC into close proximity to generate a signal. The complex comprises the following six proteins: fluorescent label 1, linker antibody 1, CD28 fusion protein, CD80 fusion protein, linker antibody 2, and fluorescent label 2. The table below describes these reagents in greater detail.
On formation of the complex, europium and APC are brought into proximity and a signal is generated.
Non-specific interaction was measured by substituting a mouse Fab fragment (C215) for the CD80 mouse Fab fragment fusion protein (1.9 μg/ml). The assay was carried out in black 384 well plates in a final volume of 30 μl. Assay buffer: 50 mM Tris-HCl, 150 mM NaCl pH7.8, containing 0.1% BSA (w/v) added just prior to use.
Compounds were added to the above reagents in a concentration series ranging between 100 μM-1.7 nM. The reaction was incubated for 4 hours at room temperature. Dual measurements were made using a Wallac Victor 1420 Multilabel Counter. […] Counts were automatically corrected for fluorescence crossover, quenching and background.

O=C(N[C@H]1CN2CCC1CC2)c1ccc(-n2[nH]c3c(nnc4c(F)ccc(F)c43)c2=O)cc1 [The compound, (R)—N-(1-Aza-bicyclo[2.2.2]oct-3-yl)-4-(6,9-difluoro-3-oxo-1,3-dihydro-pyrazolo[4,3-c]cinnolin-2-yl)-benzamide]
Kd [1]: 0.35 nM | EC50 [2]: 0.82 nM
